According to patent publication US5821231A, “CS-1 peptidomimetics, compositions and methods of using same” (Cytel Corporation, priority 1995, dated 1998):
Square brackets hold non-standard residues; d marks the D form. Peptide text beside a SMILES is read from it. * marks the point of attachment. Morpholide = C1CN(*)CCO1; PhAc = O=C(Cc1ccccc1)*; OBn = c1ccc(CO*)cc1

Legend:
VLA-4 [1] = biological target: T1, VLA-4 (Homo sapiens, UniProt P05556+P13612); conditions: cited from earlier work
[2] = system: New Zealand white rabbits; assay: Treatment of asthmatic rabbits (house dust mite antigen challenge, crossover); type: in vivo, rabbit; conditions: 100 mg/kg nebulizer
Method: Six New Zealand white rabbits were immunized with house dust mite antigen from birth through four months of age. Upon immunization, three rabbits received a single nebulizer administration of the inhibitor compound, Compound ID No. 1051.01, N-phenylacetyl-Leu-Asp-Phe-morpholinamide in aqueous 50 percent ethanol as diluent in an amount of 100 mg/kg, and the other three received diluent alone. All of the rabbits were challenged with house dust mite antigen about 15-30 minutes after administration of the compound, with those animals not receiving compound serving as controls.
Once immunized and challenged, the inflammatory state subsides to a basal level within about three weeks. The three animals used as controls were thereafter used as subjects for receipt of an inhibitor compound, and the three rabbits that initially received the compound can serve as controls.
Such a crossover study was done here. […]
Initial pulmonary function, measured by dynamic compliance (Cdyn) and lung resistance (RL), and bronchoalveolar lavage (BAL) to obtain an effector cell count, here eosinophils, were conducted prior to administration of the compound or diluent for both portions of this crossover study. […]

immune T cells = conditions: about 50 μg/ml admixed with immune T cells; Ferguson et al.; cited from earlier work
Jurkat T cell line = assay: Jurkat cell binding to frozen human rheumatoid arthritis synovial sections; type: cell-based; conditions: 10-mer at 500 μg/ml
Method: Binding studies were carried out using the Jurkat T cell line and frozen RA synovial sections. […] Stimulated MOLT-4 cells behaved similarly.
The absolute value of that IC50 value is about 0.5 μmolar.

BALB/c mice = assay: Adoptive transfer delayed type hypersensitivity in mice (oxazolone); type: in vivo, mouse; conditions: expanded study; versus vehicle alone
Method: An adoptive transfer delayed-type hypersensitivity murine model has been developed using splenic T cells primed to oxazolone. This model is described in Elices et al., Clin. Exp. Rheum., 11(Suppl. 8):577-580 (1993), whose procedures were followed here.
Thus, BALB/c mice were shaved on the belly and painted (50 μl on the belly and 5 μl on each paw) with three percent oxazolone in acetone/olive oil (4:1) at days zero and 1. At day 5, the mice were sacrificed, their spleens removed, and splenic T cells were obtained via nylon wool columns.
Normal saline or saline containing 25×10^6 /animal of the oxazolone-immune T cells were separately injected into naive mice. The mice were then challenged by painting 10 μl of 2 percent oxazolone onto one ear each. All procedures were carried out under sterile conditions and in endotoxin-free buffers.
Prior to challenge or saline injection, the mice were implanted with pumps that subcutaneously administered normal saline, normal saline containing the compound, Compound ID No. 896.52, N-phenylacetyl-Leu-Asp-Phe-D-Pro-NH2, or normal saline containing a compound with a scrambled sequence continually at 6 mg/kg/day for a 24-hour time period. The swelling diameter at the site of challenge or saline injection was measured with a microcaliper 24 hours thereafter.
An expanded study was carried out as described above except that a scrambled compound control was not used as a control for further inhibitor compounds of Table 1 with larger groups of mice. Statistical analyses were carried out versus injection of vehicle alone.

VLA-4 [3] = biological target: T1, VLA-4; assay: In vitro binding assay: 51Cr-labeled Jurkat cells to solid phase-bound CS-1 compound (SEQ ID NO:1); type: cell-based; set-up: inflammatory cells that contain the VLA-4 receptor [Jurkat cells; host or cells: Jurkat cells (human T lymphoblastic line)
Method: Binding inhibition is measured here as a concentration of compound that inhibits one-half the binding between a standard number of Jurkat cells and a standard amount of CS-1 compound bound to the surface of a microtiter plate well. Those concentrations are conveniently expressed as IC50 values, smaller numbers indicating a lower concentration required to inhibit 50 percent binding and therefore greater potency. Further specifics of this assay are provided hereinafter.
Jurkat cells (ATCC TIB 152), a human T lymphoblastic line, labeled with ^51 chromium were used to assay in vitro binding inhibition provided by various compounds discussed herein.
The plates were prepared as follows: The 25-mer CS-1 compound (SEQ ID NO:1) dissolved at 0.5-1 μg/ml in a buffer of 0.1M NaHCO3 at pH 9.5 that also contained 10 μg/ml of bovine serum albumin (BSA) or a conjugate of the CS-1 compound linked to ovalbumin (CS-1-OVA) dissolved at 1-2.5 μg/ml in the same buffer was used as the substrate. Each well of the microtiter plates was coated with 50 μl of substrate or buffer alone for controls. The wells were permitted to dry out completely and were then rinsed twice with PBS at pH 7.4. Non-specific binding sites of each well were then blocked using 200 μl per well of RPMI/1 percent BSA for two hours at room temperature.
Jurkat cells (3-5×10^6 cells) were placed into a 15 ml Falcon™ round-bottom tube with a cap. The tube was centrifuged, and the extra medium was then removed.
Two hundred microliters of a ^51 Cr labeling solution were added to the centrifuged cells and maintained in contact with the cells for 90-120 minutes in a warm room. […] Longer contact times provide a greater amount of labeling but lower cell viability.
The labeled cells are washed with (i) complete medium, (ii) 1 mM EDTA/PBS and then (iii) RPM1/1 percent BSA free of serum components. The cells are centrifuged after each washing. The cells are finally resuspended in serum-free RPMI/1 percent BSA at a concentration of 1×10^6 viable cells/ml, which provides a concentration that is diluted by one-half in the assay.
Inhibitor compounds are prepared as stock solutions at 20 mg/ml in DMSO in 1.5 ml cryogenic screwcap vials, and were stored at -70° C. Using Flow™ round-bottom or V-bottom microtiter plates, the inhibitor compounds were prepared at twice the assay concentration in RPMI/1 percent BSA at 60 μl/well.
Four initial dilutions were typically used.
The ^51 Cr-labeled cells ([…] at 60 μl/well) were then admixed with the diluted compound solutions. The admixtures were maintained at room temperature (about 22° C.) for 30 minutes.
One hundred microliters of each inhibitor compound/cell admixture were transferred to the substrate-coated wells. This was done in triplicate for each dilution. The resulting plates were incubated for 30 minutes at 37° C. and then washed gently three times with RPMI/1 percent BSA at 200 μl/well. Binding was observed microscopically, particularly after the second wash.
The bound cells were then lysed by the addition of a 0.5 percent solution of sodium dodecylsulfate in water at 100 μl/well. The resulting solutions were then processed for counting and calculation of IC50 values following usual procedures.
The data of Table 1 are normalized to the binding of SEQ ID NO: 3. […] Multiple assays for the same compound were averaged.

T1 sequence (P13612 34-1032): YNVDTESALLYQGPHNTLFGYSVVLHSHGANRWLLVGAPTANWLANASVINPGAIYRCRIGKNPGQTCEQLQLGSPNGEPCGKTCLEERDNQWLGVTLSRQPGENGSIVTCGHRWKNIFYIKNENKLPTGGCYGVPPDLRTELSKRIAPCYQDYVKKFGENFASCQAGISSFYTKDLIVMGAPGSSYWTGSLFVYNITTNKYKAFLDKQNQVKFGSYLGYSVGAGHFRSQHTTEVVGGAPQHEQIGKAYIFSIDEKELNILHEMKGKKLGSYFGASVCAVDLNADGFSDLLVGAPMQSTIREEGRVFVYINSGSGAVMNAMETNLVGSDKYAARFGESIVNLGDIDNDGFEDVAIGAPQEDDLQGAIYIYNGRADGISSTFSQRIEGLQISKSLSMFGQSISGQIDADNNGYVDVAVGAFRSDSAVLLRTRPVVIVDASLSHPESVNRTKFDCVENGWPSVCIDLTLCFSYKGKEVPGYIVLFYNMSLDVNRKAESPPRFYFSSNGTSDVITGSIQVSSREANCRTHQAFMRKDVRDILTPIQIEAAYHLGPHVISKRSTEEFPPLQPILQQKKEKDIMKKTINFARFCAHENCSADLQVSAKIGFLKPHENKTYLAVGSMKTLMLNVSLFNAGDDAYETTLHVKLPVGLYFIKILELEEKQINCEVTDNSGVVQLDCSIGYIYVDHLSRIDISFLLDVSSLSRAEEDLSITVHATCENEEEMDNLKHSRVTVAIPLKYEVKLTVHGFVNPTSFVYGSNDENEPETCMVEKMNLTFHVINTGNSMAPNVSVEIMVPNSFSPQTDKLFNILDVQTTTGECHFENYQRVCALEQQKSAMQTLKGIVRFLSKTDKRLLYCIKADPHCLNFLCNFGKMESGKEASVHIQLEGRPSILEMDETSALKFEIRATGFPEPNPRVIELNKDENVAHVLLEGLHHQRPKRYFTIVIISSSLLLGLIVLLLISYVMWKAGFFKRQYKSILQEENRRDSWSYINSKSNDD
T1 sequence (P05556 21-798): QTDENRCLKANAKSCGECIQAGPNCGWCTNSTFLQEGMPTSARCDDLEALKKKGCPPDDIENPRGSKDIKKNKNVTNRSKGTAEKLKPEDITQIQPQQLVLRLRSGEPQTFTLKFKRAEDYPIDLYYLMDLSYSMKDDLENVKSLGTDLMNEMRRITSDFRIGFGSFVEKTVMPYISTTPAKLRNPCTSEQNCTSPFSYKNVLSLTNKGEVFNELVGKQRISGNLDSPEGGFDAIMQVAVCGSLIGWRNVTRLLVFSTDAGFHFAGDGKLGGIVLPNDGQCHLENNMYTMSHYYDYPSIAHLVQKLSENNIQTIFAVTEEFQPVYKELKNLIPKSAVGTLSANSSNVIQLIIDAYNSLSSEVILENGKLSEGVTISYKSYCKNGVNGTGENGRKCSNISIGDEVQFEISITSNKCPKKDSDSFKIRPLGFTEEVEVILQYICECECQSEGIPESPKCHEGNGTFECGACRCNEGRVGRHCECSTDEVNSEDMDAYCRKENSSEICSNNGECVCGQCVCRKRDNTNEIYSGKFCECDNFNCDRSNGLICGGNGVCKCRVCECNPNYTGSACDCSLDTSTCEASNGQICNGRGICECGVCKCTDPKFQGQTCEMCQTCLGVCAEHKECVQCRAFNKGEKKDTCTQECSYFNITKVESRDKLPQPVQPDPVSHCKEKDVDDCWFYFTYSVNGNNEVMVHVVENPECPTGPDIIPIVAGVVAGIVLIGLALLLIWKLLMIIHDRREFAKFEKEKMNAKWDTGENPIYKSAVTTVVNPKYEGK

Question: Which “affinity of VLA-4 relative to native CS-1 25-mer” value (VLA-4 [1]) does the source give for Leu-Asp-Val [LDV] here?
Answer: The value was “at least two orders of magnitude lower affinity”.

Question: For CC(C)C[C@H](NC(=O)Cc1ccccc1)C(=O)N[C@@H](CC(=O)O)C(=O)N[C@@H](Cc1ccccc1)C(=O)N1CCOCC1 [1051.01, N-phenylacetyl-Leu-Asp-Phe-morpholinamide] (PhAc-Leu-Asp-Phe-Morpholide), which “Cdyn value over six hours after challenge” value ([2]; FIG. 4A) is on record?
Answer: The value was “stayed at about the initial value”.

Question: And the “RL values over six hours after challenge” value ([2]; FIG. 4B)?
Answer: Its value is “remained between the initial value and about 200% of that value”.

Question: Which results are given for CC[C@H](C)[C@H](NC(=O)[C@H](CCC(=O)O)NC(=O)[C@@H]1CCCN1C(=O)CN)C(=O)N[C@@H](CC(C)C)C(=O)N[C@@H](CC(=O)O)C(=O)N[C@H](C(=O)N1CCC[C@H]1C(=O)N[C@@H](CO)C(=O)N[C@H](C(=O)O)[C@@H](C)O)C(C)C [SEQ ID NO:3, GPEILDVPST] (H-GPEILDVPST-OH)?
Answer: abrogation of a transferred immune response (immune T cells): could abrogate a transferred immune response; inhibition of Jurkat cell adhesion to RA synovial sections (Jurkat T cell line): could be inhibited

Question: For CC(C)C[C@H](NC(=O)Cc1ccccc1)C(=O)N[C@@H](CC(=O)O)C(=O)N[C@@H](Cc1ccccc1)C(=O)N1CCC(O)CC1 [1070.02, .phi.Ac--Leu--Asp--Phe-4-hydroxpiperidinamide], which “Percent Inhibition (post-challenge swelling)” value (BALB/c mice) is on record?
Answer: Its value is 29%.

Question: With CC(C)C[C@H](NC(=O)Cc1ccccc1)C(=O)N[C@@H](CC(=O)O)C(=O)N[C@@H](Cc1ccccc1)C(=O)N1CCN(CC(=O)O)CC1 [1111.06, .phi.Ac--Leu--Asp--Phe-4-N(carboxymethyl)piperazinamide] as the compound, how does the “Percent Inhibition (post-challenge swelling)” value (BALB/c mice) read?
Answer: Its value is 30%.

Question: And the “Relative Potency” value (VLA-4 [3]; binding inhibition potency (IC50) relative to standard compound of SEQ ID NO:3 = 1, about one-tenth or less assigned zero)?
Answer: Its value is 2600.

Question: With CC(C)C[C@H](NC(=O)Cc1ccccc1)C(=O)N[C@@H](CC(=O)OCc1ccccc1)C(=O)N[C@@H](Cc1ccccc1)C(=O)N1CCC[C@@H]1C(N)=O [1068.07] (PhAc-LD(OBn)F[dP]-NH2) as the compound, how does the “Relative Potency (prodrug compound)” value (VLA-4 [3]; before the prodrug compound is enzymatically converted to an active form, relative to SEQ ID NO:3 = 1) read?
Answer: Its value is 0.
